What was measured:
MAP2K5/MEK5 = biological target: T1, MAP2K5/MEK5 (Homo sapiens, UniProt Q13163); test: Eurofins kinase enzymatic LANCE assay; assay type: biochemical
T1 construct: purchased Eurofins
Description: (§1) Due to our interest in the activity of GW296115 on several understudied IDG kinases, we collected full dose–response curves for all wild type kinases inhibited ≥ 75% in the DiscoverX panel that were offered by Eurofins. Having data in orthogonal formats is a powerful way to confirm inhibitory activity and adds rigor to our results. Eurofins has kinase enzymatic radiometric assays for 35 of the kinases on this list (Table S2) and a kinase enzymatic LANCE assay for one additional kinase (MAP2K5/MEK5).
(§2) Eurofins kinase enzymatic radiometric assays were carried out at the Km of ATP in dose–response (9-pt curve in duplicate) for each kinase for which it was offered.

[1] = test system: BRSK2-induced phosphorylation; test: Western blot of BRSK2-induced phosphorylation in HEK293T cells; assay type: cell-based
Description: With confirmed cellular activity, we next focused on characterizing the pathways mediated by BRSK2 utilizing GW296115. BRSK2 has a similar kinase domain to AMPK and is activated by LKB1-mediated phosphorylation in the active site at T174[24]–[26]. As previously reported, BRSK2 induces phosphorylation of AMPK substrates. Therefore, we asked whether this BRSK2-induced phosphorylation of AMPK substrates is ablated by GW296115. First, we evaluated the effect of GW296115 on AMPK substrate phosphorylation in HEK293T cells overexpressing wild-type or kinase-dead BRSK2 (Fig. 3B). Specifically, we overexpressed two different kinase-dead BRSK2 constructs, K48A and T174A, and treated cells with 2.5 μM of GW296115 for 2 or 6 h. Compared to cells expressing hcRED control, wild-type BRSK2 overexpression induced AMPK substrate phosphorylation, as measured by phospho-S/T AMPK substrate antibody. This change was not observed when overexpressing kinase-dead variants. BRSK2-induced AMPK substrate phosphorylation was ablated with GW269115 treatment at both 2- and 6-h time-points.
Next we evaluated whether specific bona fide AMPK substrates were phosphorylated by BRSK2. Based on the total pS/T AMPK substrate blots, we decided to check known substrates that match the size of the most robust changes due to BRSK2 overexpression. UNC51-like kinase 1 (ULK1) is a 120 kDa kinase that is member of the autophagy initiation complex, and is phosphorylated by AMPK at multiple residues, S317 and S555, among others[27]–[29]. Therefore, we overexpressed wild type BRSK2 in HEK293T cells and measured changes in pULK1 S317 and S555 following treatment with increasing doses of GW296115 for 2 h. BRSK2 overexpression increased phosphorylation of ULK1 at S317, but not S555. […] However, in samples expressing control hcRED, treatment with GW296115 increased pAMPK T172. We also asked if activating phosphorylation of ULK1 leads to increased phosphorylation of downstream components of the autophagy complex. Therefore we evaluated phosphorylation of S351 on P62 (SQSTM1), which is a stress induced autophagy receptor for ubiquitylated cargo[30]. Due to its central role as a signaling hub, P62 accumulation and phosphorylation serves as a sensor for starvation, oxidative stress, and selective autophagy[30]–[32]. […] Moreover, these phosphorylation events were ablated by GW296115 in a dose dependent manner (Fig. 4B,C).
Western blots were carried out as described previously. HEK293T cells were plated in 6-well format and incubated at 37 °C with 5% CO2 for 12 h. Next, cells were transfected with 1.5 ug of plasmid per well for 24 h and treated with GW296115 (in DMSO). Samples were lysed using standard conditions of RIPA (10% glycerol, 50 mM Tris–HCL, 100 mM NaCl, 2 mM EDTA, 0.1% SDS, 1% Nonidet P-40, and 0.2% Sodium Deoxycholate) supplemented with protease inhibitor cocktail (ThermoFisher Scientific, 78429), phosphatase inhibitor cocktail (ThermoFisher Scientific, 78426), NEM (Thermo Scientific, 23030), and Benzonase (Sigma, E1014). Lysis was carried out on ice over the course of 30 min and resultant lysates were centrifuged at 4 °C for 15 min at 21,000×g. Following normalization of protein concentration via BCA (Pierce, 23225), samples were denatured in NuPAGE LDS buffer (Invitrogen, NP0007) plus 1 mM DTT. Blots were imaged with a LiCor Odyssey imager, and then quantified using ImageStudio 5.2. Finally, ANOVA with multiple comparison was performed for quantitated blots using Prism 8.2.4.

[2] = test system: cytoplasmic domain of PDGFR; design: method as in PMID 10048786; conditions: in vitro; read-out: IC50, autophosphorylation of the cytoplasmic domain of PDGFR in vitro; cited from earlier work
RSK3 = test system: RSK3; design: method as in earlier work; conditions: cited from earlier work
CHEK2 = CHEK2 (Homo sapiens, UniProt O96017); test: Eurofins kinase enzymatic radiometric assay; assay type: biochemical; design: purchased Eurofins; conditions: Km of ATP, 9-point curve in duplicate
Description: as §1, §2

MAP3K11/MLK3 = MAP3K11/MLK3 (Homo sapiens, UniProt Q16584); test: Eurofins kinase enzymatic radiometric assay; assay type: biochemical; design: purchased Eurofins; conditions: Km of ATP, 9-point curve in duplicate
Description: as §1, §2

PDGFRA = PDGFRA (Homo sapiens, UniProt P16234); test: Eurofins kinase enzymatic radiometric assay; assay type: biochemical; design: purchased Eurofins; conditions: Km of ATP, 9-point curve in duplicate
Description: as §1, §2

RPS6KA6/RSK4 = RPS6KA6/RSK4 (Homo sapiens, UniProt Q9UK32); test: Eurofins kinase enzymatic radiometric assay; assay type: biochemical; design: purchased Eurofins; conditions: Km of ATP, 9-point curve in duplicate
Description: as §1, §2

AXL = AXL (Homo sapiens, UniProt P30530); test: DiscoverX scanMAX competition binding assay; design: purchased Eurofins DiscoverX Corporation
Description: Based on its narrow profile when tested in the combined Nanosyn and TSA panels, GW296115 was included in the recently released Kinase Chemogenomic Set (KCGS)[15]. All of the data presented in the Introduction section was collected prior to the inclusion of GW296115 in KCGS and everything that follows has been subsequently generated. Since its inclusion in PKIS and more recently KCGS, we have carried out a broader round of screening at DiscoverX. This profiling data has not been previously released and is reported here for the first time. GW296115 was profiled against 403 wild type human kinases at 1 μM using the DiscoverX scanMAX screening platform, which employs an active site-directed competition binding assay to quantitatively measure interactions between test compounds and kinases, [16]. GW296115 inhibited 25 kinases > 90% at 1 μM, resulting in a selectivity index (S10) of 0.062 at 1 μM (Table S2, Fig. 1C)[17].
The scanMAX assays were performed at Eurofins DiscoverX Corporation as previously described.

PIM2 = PIM2 (Homo sapiens, UniProt Q9P1W9); design: purchased Eurofins DiscoverX Corporation; method as in earlier work; conditions: cited from earlier work
[3] = HEK293T overexpressing wild type BRSK2, increasing doses for 2 h

PDGFRA, sequence (P16234 24-1089): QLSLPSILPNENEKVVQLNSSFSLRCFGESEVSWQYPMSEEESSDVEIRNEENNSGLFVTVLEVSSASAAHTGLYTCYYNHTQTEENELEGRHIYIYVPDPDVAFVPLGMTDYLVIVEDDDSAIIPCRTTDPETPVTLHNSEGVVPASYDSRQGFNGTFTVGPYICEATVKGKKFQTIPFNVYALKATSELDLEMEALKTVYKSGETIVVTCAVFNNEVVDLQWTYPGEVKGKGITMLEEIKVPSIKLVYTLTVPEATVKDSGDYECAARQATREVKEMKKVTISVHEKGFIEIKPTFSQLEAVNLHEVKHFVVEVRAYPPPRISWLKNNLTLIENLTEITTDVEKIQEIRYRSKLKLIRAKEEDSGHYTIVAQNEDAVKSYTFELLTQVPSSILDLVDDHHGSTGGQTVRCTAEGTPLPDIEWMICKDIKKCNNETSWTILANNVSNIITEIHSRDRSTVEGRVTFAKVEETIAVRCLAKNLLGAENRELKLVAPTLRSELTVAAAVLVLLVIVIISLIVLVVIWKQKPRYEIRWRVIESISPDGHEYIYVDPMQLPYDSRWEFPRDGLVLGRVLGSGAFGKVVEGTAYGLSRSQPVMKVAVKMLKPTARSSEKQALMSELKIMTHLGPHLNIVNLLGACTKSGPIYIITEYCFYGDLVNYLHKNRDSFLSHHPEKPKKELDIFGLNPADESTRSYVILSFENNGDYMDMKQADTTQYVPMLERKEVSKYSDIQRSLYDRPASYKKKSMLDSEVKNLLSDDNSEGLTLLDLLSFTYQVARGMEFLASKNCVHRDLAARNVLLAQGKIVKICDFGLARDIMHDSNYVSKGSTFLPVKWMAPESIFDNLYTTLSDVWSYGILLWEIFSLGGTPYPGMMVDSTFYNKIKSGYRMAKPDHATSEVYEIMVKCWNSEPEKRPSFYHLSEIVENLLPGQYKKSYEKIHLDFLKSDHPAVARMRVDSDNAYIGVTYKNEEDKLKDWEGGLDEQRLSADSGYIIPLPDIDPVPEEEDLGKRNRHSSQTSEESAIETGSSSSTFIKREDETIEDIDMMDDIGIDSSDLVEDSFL
MAP3K11/MLK3, sequence (Q16584 whole entry): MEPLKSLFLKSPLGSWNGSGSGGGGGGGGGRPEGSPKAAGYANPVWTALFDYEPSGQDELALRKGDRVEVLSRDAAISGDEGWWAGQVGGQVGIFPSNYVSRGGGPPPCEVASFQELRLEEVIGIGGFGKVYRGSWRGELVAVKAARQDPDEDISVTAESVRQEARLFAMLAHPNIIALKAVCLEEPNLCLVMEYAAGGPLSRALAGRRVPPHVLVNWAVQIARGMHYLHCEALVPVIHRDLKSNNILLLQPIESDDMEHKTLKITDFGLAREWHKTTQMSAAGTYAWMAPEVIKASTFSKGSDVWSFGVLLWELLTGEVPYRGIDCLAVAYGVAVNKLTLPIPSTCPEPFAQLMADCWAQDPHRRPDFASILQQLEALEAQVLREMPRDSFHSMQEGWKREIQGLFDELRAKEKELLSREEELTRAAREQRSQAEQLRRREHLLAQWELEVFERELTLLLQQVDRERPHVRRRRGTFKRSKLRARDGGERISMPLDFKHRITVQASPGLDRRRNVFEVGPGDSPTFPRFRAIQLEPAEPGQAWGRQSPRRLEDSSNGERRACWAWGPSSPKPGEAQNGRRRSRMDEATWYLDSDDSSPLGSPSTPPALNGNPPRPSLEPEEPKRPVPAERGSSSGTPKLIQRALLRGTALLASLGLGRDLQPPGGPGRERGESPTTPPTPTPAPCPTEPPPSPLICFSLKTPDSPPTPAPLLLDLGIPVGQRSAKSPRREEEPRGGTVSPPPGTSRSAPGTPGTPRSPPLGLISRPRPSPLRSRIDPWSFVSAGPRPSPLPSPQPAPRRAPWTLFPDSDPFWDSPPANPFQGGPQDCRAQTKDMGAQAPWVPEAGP
T1 sequence (Q13163 whole entry): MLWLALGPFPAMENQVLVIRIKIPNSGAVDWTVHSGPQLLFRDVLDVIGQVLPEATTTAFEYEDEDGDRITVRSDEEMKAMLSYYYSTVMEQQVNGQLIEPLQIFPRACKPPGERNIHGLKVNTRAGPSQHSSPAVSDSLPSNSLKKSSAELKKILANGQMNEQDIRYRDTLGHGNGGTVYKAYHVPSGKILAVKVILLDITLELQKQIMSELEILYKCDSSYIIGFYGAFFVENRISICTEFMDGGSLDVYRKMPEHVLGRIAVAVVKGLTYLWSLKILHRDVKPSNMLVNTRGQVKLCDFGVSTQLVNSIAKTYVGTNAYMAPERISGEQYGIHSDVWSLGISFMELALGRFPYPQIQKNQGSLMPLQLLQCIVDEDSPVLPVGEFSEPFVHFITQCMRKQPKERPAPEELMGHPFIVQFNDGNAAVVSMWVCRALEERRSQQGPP
CHEK2, sequence (O96017 whole entry): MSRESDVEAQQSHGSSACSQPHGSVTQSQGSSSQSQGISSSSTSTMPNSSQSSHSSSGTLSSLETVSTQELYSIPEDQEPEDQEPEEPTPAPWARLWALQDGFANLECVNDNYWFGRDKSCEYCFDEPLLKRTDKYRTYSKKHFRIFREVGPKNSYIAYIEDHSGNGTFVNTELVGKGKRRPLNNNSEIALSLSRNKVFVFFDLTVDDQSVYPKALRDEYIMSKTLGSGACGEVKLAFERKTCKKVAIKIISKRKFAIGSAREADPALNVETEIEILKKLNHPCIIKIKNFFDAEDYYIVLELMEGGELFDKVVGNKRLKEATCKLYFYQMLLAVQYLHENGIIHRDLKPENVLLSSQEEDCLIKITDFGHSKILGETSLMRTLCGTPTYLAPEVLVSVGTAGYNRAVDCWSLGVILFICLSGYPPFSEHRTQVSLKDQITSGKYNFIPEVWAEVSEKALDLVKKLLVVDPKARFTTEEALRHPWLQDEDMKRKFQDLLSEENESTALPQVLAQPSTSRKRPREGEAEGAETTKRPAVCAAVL
RPS6KA6/RSK4, sequence (Q9UK32 whole entry): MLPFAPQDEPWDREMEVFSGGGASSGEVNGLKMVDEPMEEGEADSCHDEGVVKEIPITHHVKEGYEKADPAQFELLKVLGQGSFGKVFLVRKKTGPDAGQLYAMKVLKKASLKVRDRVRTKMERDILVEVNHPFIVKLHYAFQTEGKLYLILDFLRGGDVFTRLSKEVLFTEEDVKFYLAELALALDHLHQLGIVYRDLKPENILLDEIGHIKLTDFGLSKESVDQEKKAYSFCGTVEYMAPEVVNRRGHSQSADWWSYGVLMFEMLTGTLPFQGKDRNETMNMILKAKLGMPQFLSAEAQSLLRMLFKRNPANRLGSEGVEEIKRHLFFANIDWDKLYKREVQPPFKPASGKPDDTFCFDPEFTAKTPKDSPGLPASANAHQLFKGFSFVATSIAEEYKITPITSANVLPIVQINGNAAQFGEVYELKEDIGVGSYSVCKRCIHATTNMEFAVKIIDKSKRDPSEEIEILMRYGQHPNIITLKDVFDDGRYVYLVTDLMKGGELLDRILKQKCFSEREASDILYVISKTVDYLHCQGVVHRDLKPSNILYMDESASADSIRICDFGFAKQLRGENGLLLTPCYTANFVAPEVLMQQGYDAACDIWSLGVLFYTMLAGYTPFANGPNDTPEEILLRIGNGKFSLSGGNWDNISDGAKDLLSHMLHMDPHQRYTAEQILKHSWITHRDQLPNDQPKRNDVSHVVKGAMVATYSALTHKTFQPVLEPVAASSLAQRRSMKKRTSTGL
AXL, sequence (P30530 26-894): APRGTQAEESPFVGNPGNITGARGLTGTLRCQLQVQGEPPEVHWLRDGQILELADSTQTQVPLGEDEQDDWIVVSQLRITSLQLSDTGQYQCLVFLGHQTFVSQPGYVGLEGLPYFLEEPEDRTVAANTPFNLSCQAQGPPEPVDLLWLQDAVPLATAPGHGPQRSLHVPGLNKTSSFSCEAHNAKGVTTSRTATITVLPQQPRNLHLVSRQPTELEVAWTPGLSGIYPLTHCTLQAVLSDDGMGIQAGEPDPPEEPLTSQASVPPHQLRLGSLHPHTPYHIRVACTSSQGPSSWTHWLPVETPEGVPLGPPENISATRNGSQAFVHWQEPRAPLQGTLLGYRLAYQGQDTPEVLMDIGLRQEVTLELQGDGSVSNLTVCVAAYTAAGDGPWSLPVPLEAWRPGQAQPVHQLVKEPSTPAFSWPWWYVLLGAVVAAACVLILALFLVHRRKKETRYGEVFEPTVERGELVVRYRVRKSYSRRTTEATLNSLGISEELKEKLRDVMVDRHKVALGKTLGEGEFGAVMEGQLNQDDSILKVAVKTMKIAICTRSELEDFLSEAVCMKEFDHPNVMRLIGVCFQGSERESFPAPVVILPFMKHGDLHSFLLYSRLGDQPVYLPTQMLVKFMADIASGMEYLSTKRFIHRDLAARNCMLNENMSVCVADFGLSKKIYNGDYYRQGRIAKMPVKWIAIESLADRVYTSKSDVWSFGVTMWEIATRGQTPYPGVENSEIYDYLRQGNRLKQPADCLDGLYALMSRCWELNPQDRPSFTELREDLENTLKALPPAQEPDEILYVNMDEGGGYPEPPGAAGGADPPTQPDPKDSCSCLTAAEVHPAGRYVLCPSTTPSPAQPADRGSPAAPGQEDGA
PIM2, sequence (Q9P1W9 whole entry): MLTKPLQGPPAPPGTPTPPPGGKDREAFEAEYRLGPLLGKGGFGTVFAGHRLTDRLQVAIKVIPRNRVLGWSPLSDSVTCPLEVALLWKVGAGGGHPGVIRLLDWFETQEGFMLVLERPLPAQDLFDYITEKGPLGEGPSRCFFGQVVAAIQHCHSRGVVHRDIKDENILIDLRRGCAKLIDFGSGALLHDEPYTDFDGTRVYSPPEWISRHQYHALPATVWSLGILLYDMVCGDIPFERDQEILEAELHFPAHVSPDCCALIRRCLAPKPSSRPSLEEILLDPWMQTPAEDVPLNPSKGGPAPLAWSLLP

COc1ccc2[nH]c3c4[nH]c5ccc(OC)cc5c4c4c(c3c2c1)C(=O)NC4=O [GW296115]
IC50 (MAP2K5/MEK5): > 10000 nM
BRSK2-induced phosphorylation of ULK1 S317 [1, 3]: decreased dose-dependently
pP62 S351 following BRSK2 overexpression [1, 3]: dose dependently downregulated
BRSK2-induced AMPK substrate phosphorylation (phospho-S/T AMPK substrate antibody) ([1]; HEK293T overexpressing wild-type BRSK2, 2.5 μM for 2 or 6 h): ablated
phosphorylation of BRSK2 at T174 ([1]; HEK293T overexpressing wild-type or K48A BRSK2): hyper-phosphorylated
phosphorylation at the LKB1 target site (T172) on AMPK ([1]; HEK293T, 2.5 μM for 2 or 6 h): did not inhibit
IC50 [2]: 1800 ± 120 nM
Nanosyn % Inhibition at 1 μM (RSK3): 92%
IC50 (CHEK2): 2.6 nM
IC50 (MAP3K11/MLK3): 1.5 nM
IC50 (PDGFRA): 710 nM
IC50 (RPS6KA6/RSK4): 12 nM
inhibition at 1 µM (AXL): 75%
Nanosyn % Inhibition at 1 μM (PIM2): 68%

From publication PMC7522982, “PKIS deep dive yields a chemical starting point for dark kinases and a cell active BRSK2 inhibitor” (Scientific Reports, 2020)
